Assay results as given in patent US20240270741A1 (Cogent Biosciences, Inc., priority 2023, published 2024).

Molecular target: FGFR2 (Homo sapiens, UniProt P21802)
Assay: FGFR wild type enzyme assay (HTRF KinEASE-TK), FGFR2
Conditions: Enz FGFR2 (nM), FGFR2 wild type enzyme

Chain of FGFR2 (P21802 399-821 limits assumed): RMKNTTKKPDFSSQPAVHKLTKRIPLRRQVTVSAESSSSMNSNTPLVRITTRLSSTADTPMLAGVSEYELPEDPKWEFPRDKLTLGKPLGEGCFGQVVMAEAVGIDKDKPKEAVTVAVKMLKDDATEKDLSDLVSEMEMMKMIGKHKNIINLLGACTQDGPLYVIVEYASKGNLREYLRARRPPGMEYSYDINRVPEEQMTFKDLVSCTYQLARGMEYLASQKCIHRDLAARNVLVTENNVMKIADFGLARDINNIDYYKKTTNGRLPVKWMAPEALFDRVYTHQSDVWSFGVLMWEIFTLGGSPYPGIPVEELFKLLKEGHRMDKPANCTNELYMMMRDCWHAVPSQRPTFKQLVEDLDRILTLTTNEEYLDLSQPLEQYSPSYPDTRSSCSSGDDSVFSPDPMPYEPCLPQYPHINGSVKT

Row | Compound | IC50 [nM]
1 | Cc1c(-c2cc(Sc3ccc(F)cc3C#N)c3c(C#N)cnn3c2)cnn1[C@H]1C[C@H]2CC[C@@H](C1)N2C [Example 300, 4-((2-cyano-4-fluorophenyl)thio)-6-(5-methyl-1-((1R,3r,5S)-8-methyl-8-azabicyclo[3.2.1]octan-3-yl)-1H-pyrazol-4-yl)pyazolo[1,5-a]pyridine-3-carbonitrile] | 1
2 | Cc1c(-c2cc(Sc3ccc(F)cc3C#N)c3c(C#N)cnn3c2)cnn1[C@H]1CC[C@H](NC(=O)CO)CC1 [Example 301, N-((1r,4r)-4-(4-(3-cyano-4-((2-cyano-4-fluorophenyl)thio)pyrazolo [1,5-a]pyridin-6-yl)-5-methyl-1H-pyrazol-1-yl)cyclohexyl)-2-hydroxyacetamide] | 1
3 | Cc1nn(C2CCN(C)CC2)c(C)c1-c1cc(Sc2ncccc2F)c2c(C#N)cnn2c1 [Example 303, 6-(3,5-dimethyl-1-(1-methylpiperidin-4-yl)-1H-pyrazol-4-yl)-4-((3-fluoropyridin-2-yl)thio)pyrazolo[1,5-a]pyridine-3-carbontirile] | 6
4 | Cc1nn([C@H]2CC[C@@H](N(C)C)CC2)c(C)c1-c1cc(Sc2ncccc2F)c2c(C#N)cnn2c1 [Example 304, 6-(1-((1s,4s)-4-(dimethylamino)cyclohex-yl)-3,5-dimethyl-1H-pyrazol-4-yl)-4-((3-fluoropyridin-2-yl)thio)pyrazolo[1,5-a]pryidine-3-carbonitrile] | 3.5
5 | Cc1nn(C2CCN(C)CC2)c(C)c1-c1cc(Sc2ccccc2C#N)c2c(C#N)cnn2c1 [Example 305, 4-((2-cyanophenyl)thio)-6-(3,5-dimethyl-1-(1-methylpiperidin-4-yl)-1H-pyrazol-4-yl)pyrazolo[1,5-a]pyridine-3-carbonitrile] | 5

More lines, now with the values ahead:

Row | IC50 [nM] | Compound
6 | 4 | Cc1c(-c2cc(Sc3ccccn3)c3c(C#N)cnn3c2)cnn1[C@H]1CC[C@@H](O)CC1 [Example 302]
7 | 6 | CC(=O)N1CCC(n2ncc(-c3cc(Sc4ccc(F)cn4)c4c(C#N)cnn4c3)c2C)CC1 [Example 306, 6-(1-(1-acetylpiperidin-4-yl)-5-methyl-1H-pyrazol-4-yl)-4-((5-fluoropyridin-2-yl)thio)pyrazolo[1,5-a]pyridine-3-carbonitrile]
8 | 5 | Cc1c(-c2cc(Sc3ccc(F)cn3)c3c(C#N)cnn3c2)cnn1[C@H]1CCCNC1 [Example 307, (S)-4-((5-fluoropyridin-2-yl)thio)-6-(5-methyl-1-(piperidin-3-yl)-1H-pyrazol-4-yl)pyrazolo[1,5-a]pyridine-3-carbonitrile]
9 | 7 | CC(=O)N1CCC[C@H](n2ncc(-c3cc(Sc4ccc(F)cn4)c4c(C#N)cnn4c3)c2C)C1 [Example 308, (S)-6-(1-(1-acetylpiperidin-3-yl)-5-methyl-1H-pyrazol-4-yl)-4-((5-fluoropyridin-2-yl)thio)pyrazolo[1,5-a]pyridine-3-carbonitrile]
10 | 6 | Cc1c(-c2cc(Sc3ccc(F)cn3)c3c(C#N)cnn3c2)cnn1[C@H]1C[C@H]2CC[C@@H](C1)N2C(=O)CO [Example 309, 4-((5-fluoropyridin-2-yl)thio)-6-(1-((1R,3r,5S)-8-(2-hydroxyacetyl)-8-azabicyclo[3.2.1]octan-3-yl)-5-methyl-1H-pyrazol-4-yl)pyrazolo[1,5-a]pyridine-3-carbonitrile]
11 | 8 | Cc1c(-c2cc(Sc3ccc(F)cn3)c3c(C#N)cnn3c2)cnn1[C@@H]1C[C@H]2CC[C@@H](C1)N2C(=O)CO [Example 310, 4-((5-fluoropyridin-2-y)thio)-6-(1-((1R,3s,5S)-8-(2-hydroxyacetyl)-8-azabicyclo[3.2.1]octan-3-yl)-5-methyl-1H-pyrazol-4-yl)pyrazolo[1,5-a]pyridine-3-carobnitrile]
12 | 2 | CN[C@H]1CC[C@@H](n2ncc(-c3cc(Sc4ccccn4)c4c(C#N)cnn4c3)c2C)CC1 [Example 311, 6-(5-methyl-1-((1s,4s)-4-(methylamino)cyclohexyl)-1H-pyrazol-4-yl)-4-(pyridin-2-ylthio)pyrazolo[1,5-a]pyridine-3-carbonitrile]
